Measured values taken from patent US20070066580A1, “Novel aldosterone antagonists and uses thereof” (Recordati Ireland Limited, priority 2005, published 2007).

How the values were obtained:
MR = target: T1, MR (Homo sapiens, UniProt P08235); details: cited from earlier work
T1 sequence (P08235 1-984): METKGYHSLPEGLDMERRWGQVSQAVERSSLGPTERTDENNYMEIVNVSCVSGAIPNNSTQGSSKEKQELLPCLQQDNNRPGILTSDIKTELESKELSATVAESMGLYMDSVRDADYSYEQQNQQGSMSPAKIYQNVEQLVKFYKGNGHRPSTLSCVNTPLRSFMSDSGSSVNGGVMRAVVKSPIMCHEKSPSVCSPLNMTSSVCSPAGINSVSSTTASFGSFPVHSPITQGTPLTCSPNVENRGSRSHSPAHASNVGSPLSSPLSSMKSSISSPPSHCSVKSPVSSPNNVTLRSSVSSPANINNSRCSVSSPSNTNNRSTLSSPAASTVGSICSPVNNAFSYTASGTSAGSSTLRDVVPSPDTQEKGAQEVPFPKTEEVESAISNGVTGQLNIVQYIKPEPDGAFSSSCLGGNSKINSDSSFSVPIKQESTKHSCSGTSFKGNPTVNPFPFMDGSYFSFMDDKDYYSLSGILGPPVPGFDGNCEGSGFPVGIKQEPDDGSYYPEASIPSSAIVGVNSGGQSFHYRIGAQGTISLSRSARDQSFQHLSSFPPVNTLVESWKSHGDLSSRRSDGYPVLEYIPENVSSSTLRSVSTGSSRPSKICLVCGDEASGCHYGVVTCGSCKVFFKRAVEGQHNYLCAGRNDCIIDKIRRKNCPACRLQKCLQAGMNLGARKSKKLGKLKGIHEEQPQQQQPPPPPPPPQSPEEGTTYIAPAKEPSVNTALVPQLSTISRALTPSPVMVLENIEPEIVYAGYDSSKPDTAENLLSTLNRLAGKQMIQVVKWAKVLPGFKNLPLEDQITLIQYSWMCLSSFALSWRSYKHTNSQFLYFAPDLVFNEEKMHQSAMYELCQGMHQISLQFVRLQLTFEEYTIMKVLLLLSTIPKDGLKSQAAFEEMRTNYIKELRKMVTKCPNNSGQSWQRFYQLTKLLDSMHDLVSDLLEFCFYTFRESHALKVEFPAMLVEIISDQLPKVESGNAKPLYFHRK

[1] = severe heart failure (NYHA class IV), plus diuretics, versus placebo plus diuretics; cited from earlier work
[2] = target: T2, ligand binding domain of the human mineralocorticoid receptor (hMR LBD) (Homo sapiens, UniProt P08235); experiment: Mineralocorticoid receptor (MR) in vitro competitive binding assay, [3H]aldosterone displacement; details: IR^TOTAL = sum of IR^AR/MR, IR^ER/MR, IR^GR/MR, IR^PR/MR
T2 construct: made in house; host or cells: Sf9 insect cells (baculovirus, pFastBac)
T2 sequence (P08235 729-984): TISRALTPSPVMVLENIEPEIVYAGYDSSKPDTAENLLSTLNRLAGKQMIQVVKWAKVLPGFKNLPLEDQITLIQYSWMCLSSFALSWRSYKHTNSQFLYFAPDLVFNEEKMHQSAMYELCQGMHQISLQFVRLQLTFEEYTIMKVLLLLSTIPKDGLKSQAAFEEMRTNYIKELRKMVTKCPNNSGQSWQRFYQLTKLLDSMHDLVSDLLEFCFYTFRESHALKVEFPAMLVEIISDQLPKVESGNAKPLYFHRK
Procedure: Mineralocorticoid receptor (MR) binding assay: Spodoptera furgiperda (Sf9) insect cells (ATCC accession number CRL-1711) were maintained in culture in EX-CELL™ 420 serum free medium (JRH Biosciences, Inc.) at 27° C.
A recombinant baculovirus containing nucleotide sequences encoding the ligand binding domain of the human mineralocorticoid receptor (hMR) cloned into the pFastBac™ vector was generated using the Bac-to-Bac® Baculovirus Expression System Kit (Invitrogen) following the manufacturer's instructions. This recombinant baculovirus contains nucleotides 2401 through 3168 (SEQ ID NO: 13) of hMR, providing for expression of the ligand binding domain (LBD), amino acid residues 729-984 (SEQ ID NO: 14), of hMR (hMR LBD). Cultured Sf9 insect cells were transfected with this recombinant baculovirus following the manufacturer's instructions.
For the binding assay, a crude lysate of the hMR LBD-expressing insect cells was prepared. The crude lysate was diluted 12.5-fold with binding buffer (20 mM Tris-HCl pH 7.4, 1 mM EDTA, 1 mM dithiothreitol, 20 mM sodium tungstate, 50 mM KCl and 10% glycerol).
For the negative control sample, the diluted lysate was incubated with a 10 nM final concentration of the radioligand [1,2,6,7-^3H] aldosterone (Amersham Biosciences, catalogue # 434) for 3.5 h at 4° C. For test compounds and the positive control sample, the diluted lysate was incubated with various concentrations of test compound or with a 20 μM final concentration of spironolactone (Sigma, S-3378) as a reference compound for 45 min on ice, and was then incubated with a 10 nM final concentration of [1,2,6,7-^3H] aldosterone for 3.5 h at 4° C.
Using a CellHarvester (PerkinElmer, formerly Packard Biosciences), receptor/ligand complexes were retained on 96-well GF/B filters (PerkinElmer, formerly Packard Biosciences) while free radioligand passed through the filters. Scintillation counting of GF/B filter plates was performed using a TopCount NXT (PerkinElmer, formerly Packard Biosciences) to quantitate the amount of [1,2,6,7-^3H] aldosterone bound to the hMR LBD.
The IC50 of a test compound was determined from the concentration of test compound giving half-maximal displacement as obtained by nonlinear least-squares curve fitting to a one-site binding sigmoidal model using Prism 3.0 (Graph Pad Software, Inc., San Diego, US). The calculated IC50 values represent the average values calculated from the results of 1-3 experiments carried out in duplicate.
IC50 and inhibitory ratio calculations: To provide a measure of the potency of each test compound as an antagonist of MR, the IC50 of each test compound (IC50^Test) for ligand binding to MR and the IC50 of the known MR antagonists eplerenone (IC50^Ep) and spironolactone (IC50^Sp) for ligand binding to MR were used to calculate an IC50 ratio (RIC50) according to the following equations: RIC50^Ep/Test=IC50^Ep/IC50^Test and RIC50^Sp/Test=IC50^Sp/IC50^Test.
These individual inhibitory ratios were used to calculate a total inhibitory ratio (IR^TOTAL) according to the following equation: IR^TOTAL=IR^AR/MR+IR^ER/MR+IR^GR/MR+IR^PR/MR. B. Results and Discussion

[3] = target: T3, GAL4 DBD-hMR LBD fusion protein (Homo sapiens, UniProt P08235); experiment: Cell-based luciferase assay, agonist mode (CV-1 cells); details: 10 μM of compound
T3 construct: expressed in transfected cells; host or cells: CV-1 cells (African green monkey kidney), transient co-transfection with pCMX-GAL4-based vector and Galp3TKLuc reporter
Excerpt: GAL4 DBD-hMR LBD fusion protein expression vector: A pCMX-GAL4-based vector was used for the expression of a fusion protein composed of the amino acids 1-147 of the DNA binding domain of Saccharomyces cerevisiae GAL4 (GAL4 DBD) (SEQ ID NO: 16) and amino acid residues 729-984 of the ligand binding domain of human mineralocorticoid receptor (hMR LBD) (SEQ ID NO: 14). The expression vector contained an expression cassette of the nucleotide sequence for the GAL4 DBD (See SEQ ID NO: 19) ligated to nucleotides 2401 through 3168 of the human mineralocorticoid (hMR) receptor (SEQ ID NO: 13).
In vitro cell culture: CV-1 cells (African green monkey kidney cell line, ATCC accession number CCL-70) were maintained in culture in 90% DMEM medium supplemented by 9% FCS and 1% Penicillin-Streptomycin-L-Glutamine at 37° C. under 8.5% CO2.
These cells were transiently co-transfected with the GAL4 DBD-hMR LBD fusion protein expression vector and the Galp3TKLuc reporter gene vector using the FuGENE 6 Transfection Reagent (Roche) according to the manufacturer's instructions.
Agonist assay: As a positive control, aldosterone (Acros Organics, catalogue # 215360050) was used at a concentration of 100 nM. The negative control sample was 90% DMEM medium supplemented by 9% charcoal-treated FCS and 1% Penicillin-Streptomycin-L-Glutamine containing 0.2% DMSO plus 0.02% ethanol. Positive control, negative control, or 10 μM final concentration of test compound was added to the cells and incubated for 24 hours at 37° C. under 8.5% CO2 before the Luciferase substrate (Promega, catalogue number #E2620) was added. After an incubation period of 5 min at RT, luminescence signals were read on a microplate reader (Molecular Devices/LJL Biosystems). Negative and positive controls were defined as 0% and 100% agonism, respectively. The agonistic potency of test compounds is given in % and was normalized to the positive and negative controls.

[4] = cited from earlier work

T3 sequence (P08235 with tags, fused parts or gaps limits assumed): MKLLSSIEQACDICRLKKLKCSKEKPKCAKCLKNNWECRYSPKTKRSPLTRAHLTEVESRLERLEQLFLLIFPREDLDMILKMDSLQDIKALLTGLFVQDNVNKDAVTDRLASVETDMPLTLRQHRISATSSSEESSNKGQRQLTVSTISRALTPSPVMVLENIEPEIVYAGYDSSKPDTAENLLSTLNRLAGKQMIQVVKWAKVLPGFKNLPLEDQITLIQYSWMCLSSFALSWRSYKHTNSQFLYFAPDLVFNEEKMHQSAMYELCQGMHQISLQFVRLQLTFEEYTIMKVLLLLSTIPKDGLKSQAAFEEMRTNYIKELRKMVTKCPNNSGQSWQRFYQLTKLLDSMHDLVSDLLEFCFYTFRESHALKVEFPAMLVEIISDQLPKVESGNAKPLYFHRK

Compound: C[C@]12C=CC(=O)C=C1[C@@H]1C[C@@H]1[C@H]1[C@@H]3[C@@H]4C[C@@H]4[C@@]4(CCC(=O)O4)[C@@]3(C)CC[C@@H]12 [spirorenone]
- antimineralocorticoid potency, times more potent than spironolactone (MR): approximately 7.5 times

Compound: CCOC(=O)[C@H](CCc1ccccc1)N[C@@H](C)C(=O)N1CCC[C@H]1C(=O)O [enalapril]
- reduction of mortality at one year [1]: 31%

Compound: CO/N=C/[C@@H]1CC2=CC(=O)CC[C@]2(C)[C@@]23O[C@@H]2C[C@@]2(C)C(CC[C@@]24CCC(=O)O4)C13 (stereo partly shown) [Example 52]
- IR^TOTAL compared with the IR^TOTAL for spironolactone [2]: greater than the IR^TOTAL for spironolactone
- potency for activation of MR relative to aldosterone [3]: at least three orders of magnitude less potent than aldosterone

Compound: C[C@]12CCC(=O)C=C1[C@@H]1C[C@@H]1[C@H]1[C@@H]3[C@@H]4C[C@@H]4[C@@]4(CCC(=O)O4)[C@@]3(C)CC[C@@H]12
- antimineralocorticoid potency, times more potent than spironolactone (MR): approximately 7.5 times

Compound: CC(=O)S[C@@H]1CC2=CC(=O)C=C[C@]2(C)[C@H]2CC[C@@]3(C)[C@@H]([C@@H]4C[C@@H]4[C@@]34CCC(=O)O4)[C@H]12 [Mespirenone]
- anti-MR effectiveness compared with spironolactone (MR): about three times higher

Compound: COC(=O)[C@@H]1CC2=CC(=O)CC[C@]2(C)[C@@]23O[C@@H]2C[C@@]2(C)[C@@H](CC[C@@]24CCC(=O)O4)[C@H]13 [eplerenone]
- potency in vivo as % of spironolactone [4]: 50-75%
